In general, IC50 refers to the point on the concentration scale where inhibition reaches its midpoint. Low values mean greater potency, high ones weaker potency.

The target of one assay is BRD9 bromodomain (Homo sapiens (Human), UniProt Q9H8M2). Put plainly: BRD9 bromodomain TR-FRET competition binding assay. As to conditions: Table 4; competition with biotinylated ligand, 3 nM Flag-BRD9, 90 minutes. How it is done: Procedure: His-Flag-BRD9 (P133-K239; Swiss Prot Q9H8M2; SEQ ID NO:1 mgsshhhhhhenlyfq/gdykddddkgslevlfqg/[…] […]) was cloned, expressed, purified, and then treated with TEV protease. Cleaved His tag was removed by purification. The binding of a biotinylated small molecule ligand of BRD9 was assessed via the LANCE® TR-FRET platform (PerkinElmer), and the compounds were assayed for inhibitory activity against this interaction.
A mixture of biotinylated-ligand and SureLight™ Allophycocyanin-Streptavidin (APC-SA, PerkinElmer AD0201) in 50 mM HEPES (pH 7.4), 50 mM NaCl, 1 mM TCEP (pH 7), 0.01% (v/v) Tween-20, 0.01% (w/v) bovine serum albumin was added to a white 384-well PerkinElmer Proxiplate Plus plate. DMSO or 3-fold serially diluted compounds were then added to the Proxiplate followed by addition of Flag-BRD9. After a 10-minute incubation at room temperature, Eu-W1024 anti-FLAG (PerkinElmer, AD0273) was added. The final reaction mixture that contained 3.75 nM biotinylated ligand, 3 nM Flag-BRD9, 7.5 nM SureLight™ Allophycocyanin-Streptavidin, and 0.2 nM Eu-W1024 anti-FLAG was incubated at room temperature for 90 minutes.
Results: The plates were then read on a PerkinElmer Envision plate reader to determine the ratio of emission at 665 nm over 615 nm. […]

The target of assay [1] is Nanoluciferase-BRD9 fusion protein (Homo sapiens (Human), UniProt Q9H8M2). Put plainly: SYO1 BRD9 NanoLuc degradation assay. In kind it is cell-based. As to conditions: Table 5A, SYO-1 cells expressing 3×FLAG-NLuc-BRD9, 6 hours; for DC50: read-out: SYO1 BRD9-NanoLuc degradation IC50. Summed up:
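Degradation was read as loss of nanoluciferase signal (Nano-Glo) after 6 h compound exposure in a stable SYO-1 line carrying 3×FLAG-NLuc-BRD9 (8000 cells/well). Normalised between DMSO (high) and a 1 μM known BRD9 degrader (low).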

Nanoluciferase-BRD9 fusion protein, sequence (Q9H8M2 whole entry, the tested form may be a part): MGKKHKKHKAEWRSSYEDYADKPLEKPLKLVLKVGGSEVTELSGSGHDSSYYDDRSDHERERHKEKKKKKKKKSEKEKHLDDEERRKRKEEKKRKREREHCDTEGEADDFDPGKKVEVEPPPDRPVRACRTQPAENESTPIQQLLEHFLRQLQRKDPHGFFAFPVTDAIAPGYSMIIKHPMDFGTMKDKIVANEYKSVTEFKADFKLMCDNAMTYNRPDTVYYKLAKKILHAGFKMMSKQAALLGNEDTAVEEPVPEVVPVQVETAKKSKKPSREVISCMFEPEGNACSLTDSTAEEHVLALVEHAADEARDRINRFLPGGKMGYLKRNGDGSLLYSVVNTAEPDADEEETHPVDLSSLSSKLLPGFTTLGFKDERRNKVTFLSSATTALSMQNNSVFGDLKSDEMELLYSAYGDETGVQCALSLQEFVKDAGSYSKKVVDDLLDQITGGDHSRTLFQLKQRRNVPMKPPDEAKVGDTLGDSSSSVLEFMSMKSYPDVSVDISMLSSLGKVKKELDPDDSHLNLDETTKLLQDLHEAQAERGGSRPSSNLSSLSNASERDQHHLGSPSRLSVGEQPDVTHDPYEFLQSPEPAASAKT
BRD9 bromodomain, sequence (Q9H8M2 133-239): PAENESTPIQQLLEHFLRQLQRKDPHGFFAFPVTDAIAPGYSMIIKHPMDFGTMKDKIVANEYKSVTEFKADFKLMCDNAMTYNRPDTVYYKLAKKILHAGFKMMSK

Consider `COc1cc(-c2cn(C)c(=O)c3cnccc23)cc(OC)c1CN(C)C1CCC2CN(C(=O)CCOCCOc3ccc4c(c3)C(=O)N(C3CCC(=O)NC3=O)C4=O)CC21` (stereo not drawn) [Compound D170], for which the IC50 was 10 to 100 nM on BRD9 bromodomain and < 10 nM in assay [1].

Consider `COc1cc(-c2cn(C)c(=O)c3cnccc23)cc(OC)c1CN1CCC12CN(C(=O)CCOCCOc1ccc3c(c1)C(=O)N(C1CCC(=O)NC1=O)C3=O)C2` (stereo not drawn) [Compound D98], for which the IC50 (on BRD9 bromodomain; in assay [1]) was 100 to 1000 nM each time.

Turning to `COc1cc(-c2cn(C)c(=O)c3cnccc23)cc(OC)c1CN1CC(S(=O)(=O)NCCOCCOCCNc2cccc3c2C(=O)N(C2CCC(=O)NC2=O)C3=O)C1` (stereo not drawn) [Compound D38, 1-[[2,6-dimethoxy-4-(2-methyl-1-oxo-2,7-naphthyridin-4-yl)phenyl]methyl]-N-[2-[2-(2-[[2-(2,6-dioxopiperidin-3-yl)-1,3-dioxoisoindol-4-yl]amino]ethoxy)ethoxy]ethyl]azetidine-3-sulfonamide formic acid], the IC50 (at BRD9 bromodomain; in assay [1]) was < 10 nM throughout.

On to `COc1cc(-c2cn(C)c(=O)c3cnccc23)cc(OC)c1CN(C)CC1CC2(C1)CN(C(=O)CCOCCOc1cccc3c1C(=O)N(C1CCC(=O)NC1=O)C3=O)C2` (stereo not drawn) [Compound D164], for which the IC50 at BRD9 bromodomain is < 10 nM. The DC50 in assay [1] lay in the range of 10 to 100 nM.

Take `COc1cc(-c2cn(C)c(=O)c3cnccc23)cc(OC)c1CN(C)C(=O)CCCCN1CCOC2(CCN(c3ccc4c(c3)C(=O)N(C3CCC(=O)NC3=O)C4=O)CC2)C1` (stereo not drawn) [Compound D72, N-[[2,6-dimethoxy-4-(2-methyl-1-oxo-2,7-naphthyridin-4-yl)phenyl]methyl]-5-[9-[2-(2,6-dioxopiperidin-3-yl)-1,3-dioxoisoindol-5-yl]-1-oxa-4,9-diazaspiro[5.5]undecan-4-yl]-N-methylpentanamide formic acid]: the IC50 (at BRD9 bromodomain; in assay [1]) was < 10 nM each time.

With `COc1cc(-c2cn(C)c(=O)c3cnccc23)cc(OC)c1CN1CCC2(C1)CN(C(=O)CCOCCOc1cccc3c1C(=O)N(C1CCC(=O)NC1=O)C3=O)C2` (stereo not drawn) [Compound D87], the IC50 at BRD9 bromodomain is < 10 nM. The DC50 in assay [1] is 10 to 100 nM.

Take `COc1cc(-c2cn(C)c(=O)c3cnccc23)cc(OC)c1CN1CCC12CCN(C(=O)CCOCCOc1cccc3c1C(=O)N(C1CCC(=O)NC1=O)C3=O)C2` (stereo not drawn) [Compound D95]: the IC50 on BRD9 bromodomain was 10 to 100 nM; in assay [1] it was 100 to 1000 nM.

Regarding `COc1cc(-c2cn(C)c(=O)c3cnccc23)cc(OC)c1CN(C)CC1CC2(CCN(C(=O)CCOCCOc3ccc4c(c3)C(=O)N(C3CCC(=O)NC3=O)C4=O)CC2)C1` (stereo not drawn) [Compound D175], the IC50 (on BRD9 bromodomain; in assay [1]) was 10 to 100 nM in each case.

As for `COc1cc(-c2cn(C)c(=O)c3cnccc23)cc(OC)c1CN1CC(C(=O)N(C)CCCCCNc2cccc3c2C(=O)N(C2CCC(=O)NC2=O)C3=O)C1` (stereo not drawn) [Compound D15, 1-[[2,6-dimethoxy-4-(2-methyl-1-oxo-1,2-dihydro-2,7-naphthyridin-4-yl)phenyl]methyl]-N-(5-[[2-(2,6-dioxopiperidin-3-yl)-1,3-dioxo-2,3-dihydro-1H-isoindol-4-yl]amino]pentyl)-N-methylazetidine-3-carboxamide formic acid], the IC50 (on BRD9 bromodomain; in assay [1]) was < 10 nM throughout.

In the case of `COc1cc(-c2cn(C)c(=O)c3cnccc23)cc(OC)c1CN1CCC2(CCN(C(=O)CCOCCOc3cccc4c3C(=O)N(C3CCC(=O)NC3=O)C4=O)C2)C1` (stereo not drawn) [Compound D108], the IC50 (at BRD9 bromodomain; in assay [1]) was < 10 nM throughout.

Regarding `COc1cc(-c2cn(C)c(=O)c3cnccc23)cc(OC)c1CN1CCC2(CCN(C(=O)CCOCCOc3ccc4c(c3)C(=O)N(C3CCC(=O)NC3=O)C4=O)C2)C1` (stereo not drawn) [Compound D121], the concentration for half-maximal inhibition (IC50) (on BRD9 bromodomain; in assay [1]) was 10 to 100 nM in each case.

Consider `COc1cc(-c2cn(C)c(=O)c3cnccc23)cc(OC)c1CN1CC(CCNC(=O)CCOCCOc2ccc3c(c2)C(=O)N(C2CCC(=O)NC2=O)C3=O)C1` (stereo not drawn) [Compound D117], for which, on BRD9 bromodomain, the IC50 is < 10 nM. Moreover, the DC50 in assay [1] lay in the range of 100 to 1000 nM.

Regarding `COc1cc(-c2cn(C)c(=O)c3cnccc23)cc(OC)c1CN1CCN(CCCOc2ccc3c(c2)C(=O)N(C2CCC(=O)NC2=O)C3=O)CC1` (stereo not drawn) [Compound D53, 5-[3-(4-[[2,6-dimethoxy-4-(2-methyl-1-oxo-2,7-naphthyridin-4-yl)phenyl]methyl]piperazin-1-yl)propoxy]-2-(2,6-dioxopiperidin-3-yl)isoindole-1,3-dione], the IC50 (at BRD9 bromodomain; in assay [1]) was < 10 nM throughout.

Consider `COc1cc(-c2cn(C)c(=O)c3cnccc23)cc(OC)c1CN(C)CC1CC2(CCN(C(=O)CCOCCOc3cccc4c3C(=O)N(C3CCC(=O)NC3=O)C4=O)CC2)C1` (stereo not drawn) [Compound D165], for which the IC50 (at BRD9 bromodomain; in assay [1]) was 10 to 100 nM each time.

Regarding `COc1cc(-c2cn(C)c(=O)c3cnccc23)cc(OC)c1CN1CC2C1CCN2C(=O)CCOCCOc1ccc2c(c1)C(=O)N(C1CCC(=O)NC1=O)C2=O` (stereo not drawn) [Compound D128], the IC50 at BRD9 bromodomain was 10 to 100 nM; in assay [1], < 10 nM.

Consider `COc1cc(-c2cn(C)c(=O)c3cnccc23)cc(OC)c1CN(C)CC12CC(NC(=O)CCCCOc3cccc4c3C(=O)N(C3CCC(=O)NC3=O)C4=O)(C1)C2` (stereo not drawn) [Compound D69, N-[3-[([[2,6-dimethoxy-4-(2-methyl-1-oxo-2,7-naphthyridin-4-yl)phenyl]methyl](methyl)amino)methyl]bicyclo[1.1.1]pentan-1-yl]-5-[[2-(2,6-dioxopiperidin-3-yl)-1,3-dioxoisoindol-4-yl]oxy]pentanamide], for which the IC50 (at BRD9 bromodomain; in assay [1]) was < 10 nM throughout.

For the compound `COc1cc(-c2cn(C)c(=O)c3cnccc23)cc(OC)c1CN(C)CC12CC(C(=O)NCCOCCOCCNc3cccc4c3C(=O)N(C3CCC(=O)NC3=O)C4=O)(C1)C2` (stereo not drawn) [Compound D55, 3-[([[2,6-dimethoxy-4-(2-methyl-1-oxo-2,7-naphthyridin-4-yl)phenyl]methyl](methyl)amino)methyl]-N-[2-[2-(2-[[2-(2,6-dioxopiperidin-3-yl)-1,3-dioxoisoindol-4-yl]amino]ethoxy)ethoxy]ethyl]bicyclo[1.1.1]pentane-1-carboxamide], the values for the IC50 (on BRD9 bromodomain; in assay [1]) were 10 to 100 nM and 100 to 1000 nM, respectively.

`COc1cc(-c2cn(C)c(=O)c3cnccc23)cc(OC)c1CN(C)C12CC(C(=O)NCCCCCNc3cccc4c3C(=O)N(C3CCC(=O)NC3=O)C4=O)(C1)C2` (stereo not drawn) [Compound D57, 3-([[2,6-dimethoxy-4-(2-methyl-1-oxo-2,7-naphthyridin-4-yl)phenyl]methyl](methyl)amino)-N-(5-[[2-(2,6-dioxopiperidin-3-yl)-1,3-dioxoisoindol-4-yl]amino]pentyl)bicyclo[1.1.1]pentane-1-carboxamide formic acid]: the IC50 on BRD9 bromodomain was 10 to 100 nM; in assay [1], < 10 nM.

Regarding `COc1cc(-c2cn(C)c(=O)c3cnccc23)cc(OC)c1CN1CCC2(CC1)CN(C(=O)COc1ccc3c(c1)C(=O)N(C1CCC(=O)NC1=O)C3=O)CCO2` (stereo not drawn) [Compound D64, 5-[2-(9-[[2,6-dimethoxy-4-(2-methyl-1-oxo-2,7-naphthyridin-4-yl)phenyl]methyl]-1-oxa-4,9-diazaspiro[5.5]undecan-4-yl)-2-oxoethoxy]-2-(2,6-dioxopiperidin-3-yl)isoindole-1,3-dione formic acid], the figures for the IC50 (on BRD9 bromodomain; in assay [1]) were 10 to 100 nM and 100 to 1000 nM, respectively.

Consider `COc1cc(-c2cn(C)c(=O)c3cnccc23)cc(OC)c1CN(C)CC1CC12CCN(C(=O)CCOCCOc1cccc3c1C(=O)N(C1CCC(=O)NC1=O)C3=O)CC2` (stereo not drawn) [Compound D163], for which the IC50 on BRD9 bromodomain was < 10 nM. Also, in assay [1], the DC50 fell in the range of 10 to 100 nM.

In the case of `COc1cc(-c2cn(C)c(=O)c3cnccc23)cc(OC)c1CN(C)CC1CC2(C1)CN(C(=O)CCOCCOc1ccc3c(c1)C(=O)N(C1CCC(=O)NC1=O)C3=O)C2` (stereo not drawn) [Compound D174], the IC50 was 10 to 100 nM on BRD9 bromodomain and 100 to 1000 nM in assay [1].

Consider `COc1cc(-c2cn(C)c(=O)c3cnccc23)cc(OC)c1CN1CC2CN(C(=O)CCOCCOc3ccc4c(c3)C(=O)N(C3CCC(=O)NC3=O)C4=O)CCC21` (stereo not drawn) [Compound D100], for which the IC50 (on BRD9 bromodomain; in assay [1]) was < 10 nM each time.

With `COc1cc(-c2cn(C)c(=O)c3cnccc23)cc(OC)c1CN1CC2(C1)CN(C(=O)COc1cccc3c1C(=O)N(C1CCC(=O)NC1=O)C3=O)C2` (stereo not drawn) [Compound D36, 4-(2-(6-(2,6-dimethoxy-4-(2-methyl-1-oxo-1,2-dihydro-2,7-naphthyridin-4-yl)benzyl)-2,6-diazaspiro[3.3]heptan-2-yl)-2-oxoethoxy)-2-(2,6-dioxopiperidin-3-yl)isoindoline-1,3-dione], the IC50 at BRD9 bromodomain was < 10 nM. Also, the DC50 in assay [1] lay in the range of 100 to 1000 nM.

Consider `COc1cc(-c2cn(C)c(=O)c3cnccc23)cc(OC)c1CN(C)C1CCC2CN(C(=O)CCOCCOc3cccc4c3C(=O)N(C3CCC(=O)NC3=O)C4=O)CC21` (stereo not drawn) [Compound D161], for which, on BRD9 bromodomain, the IC50 was < 10 nM. Besides, in assay [1], the DC50 lay within 10 to 100 nM.

These data come from patent US11414416B1, “Compounds and uses thereof” (Foghorn Therapeutics Inc., priority 2019, dated 2022).
